Assay results taken from article PMC11484942, “Rumicidins are a family of mammalian host-defense peptides plugging the 70S ribosome exit tunnel” (Nature Communications, 2024).

What was measured:
[1] = test system: E. coli 1057 R2 (rpoS^Q3stop, macB^N470D); settings: MHB + 0.9% NaCl
In short: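 Broth microdilution (CLSI-based) used 10^6 CFU/mL mid-log cells in MHB with or without added NaCl, and peptides serially diluted in 0.1% BSA at 37 °C. Resistance induction used daily serial passage from sub-MIC wells, followed by 3 drug-free passages before the final MIC.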

Monocytes = assay: Cytokine response, multiplex xMAP; type: cell-based, human; settings: 2 µM peptide, 24 h
Procedure: (§1) The acute monocytic leukemia THP-1 cell line (ATCC TIB-202) was cultured in the complete RPMI 1640 medium (Invitrogen) containing 10% FBS, 1× antibiotic-antimycotic solution (Invitrogen), and 0.05 mM β-mercaptoethanol, in the CO2-incubator (5% CO2, 37 °C). THP-1 cells were differentiated into proinflammatory macrophages (MΦ1) according to the previously reported protocol. Primary peripheral blood mononuclear cells (PBMC) collected from a healthy donor were purchased from ATCC (PCS-800-011), thawed, and seeded into a 96-well plate one day prior to the experiment at a density of 2 × 10^5 cells/well. Two different cell subpopulations (monocytes and T-/B-/NK-lymphocytes) were isolated from PBMC based on their adherence ability. Macrophages MΦ1 were washed out and seeded into 96-well plates at a density of 10^5 cells/well one day prior to the experiment. The next day, medium in each well was replaced by a fresh complete RPMI 1640 medium with or without 2 μM of a tested peptide (rumicidin-1 or LL-37). Cell cultures were kept in a CO2-incubator (5% CO2, 37 °C) for 24 h. Culture supernatants were collected 24 h later and stored at −70 °C degrees less than one week prior to the assessment of analytes. 26 analytes were measured at a protein level by multiplex xMAP technology using the MILLIPLEX MAP Human Cytokine/Chemokine Magnetic Bead Immunology Panel kit (HCYTOMAG-60K-27, Merck): eotaxin-1/CCL11, TGFα, GM-CSF, IFNα2, IFNγ, IL-10, IL-12p40, IL-12p70, IL-15, sCD40L, IL-17A, IL-1RA, IL-1α, IL-9, IL-1β, IL-2, IL-3, IL-4, IL-5, IL-6, IL-7, IL-8/CXCL8, IP-10/CXCL10, RANTES/CCL5, TNFα, TNFβ. Multiplex-based assay read-out was performed using the MAGPIX system (Merck) with the xPONENT 4.2 software (Merck) in accordance with the manufacturer’s instruction with overnight incubation of the samples with primary antibodies. The final analysis was carried out with the MILLIPLEX Analyst v5.1 software (Merck). Measurements were performed twice for each sample. The release of the analytes in control and experimental samples were compared by unpaired two-sample t-test using GraphPad Prism v.8.0.1. The p values ≤ 0.05 were considered significant.

PBMC = assay: Cytokine response, multiplex xMAP; type: cell-based, human; settings: 2 µM peptide, 24 h
Procedure: as §1

E. coli 1057 WT = assay: microbe, parasite or virus in culture; type: cell-based, Escherichia coli; settings: MHB + 0.9% NaCl
Procedure: Minimum inhibitory concentrations (MIC) were determined by broth microdilution assay based on Clinical and Laboratory Standards Institute (CLSI) guidelines using BSA in the growth medium to minimize AMP nonspecific adsorption[49]. Bacterial test cultures were grown in the Mueller-Hinton broth (MHB, Sigma) at 37 °C to mid-log phase and then diluted with the 2× MH medium supplemented with 1.8% NaCl (or without salt) so that to reach a final cell concentration of 10^6 CFU/mL. 50 µL of the obtained bacterial suspension were added to aliquots of 50 µL of the peptide solutions serially diluted with sterilized 0.1% bovine serum albumin (BSA) in 96-well flat-bottom polystyrene microplates (Eppendorf #0030730011). […] To verify MIC values, the respiratory activity of the bacteria was determined. Briefly, 5 µL of 0.5 mg/mL resazurin (Sigma) was added to the wells after 24 h (or after 48 h for M. smegmatis) of incubation, and the plate was incubated for additional 3 h. In some cases, MICs were determined in the Lysogeny Broth (LB) or Middlebrook 7H9 medium. The reduction of resazurin to resorufin was recorded. […] The results were expressed as the median values determined based on at least three independent experiments performed in triplicate.

Compound: CC[C@H](C)[C@H](NC(=O)[C@H](CCCCN)NC(=O)[C@H](CCC(=O)O)NC(=O)[C@H](CCCCN)NC(=O)[C@H](CO)NC(=O)[C@H](CCCCN)NC(=O)[C@H](CCCNC(=N)N)NC(=O)[C@H](Cc1ccccc1)NC(=O)[C@H](Cc1ccccc1)NC(=O)[C@H](CC(=O)O)NC(=O)CNC(=O)[C@H](CC(C)C)NC(=O)[C@@H](N)CC(C)C)C(=O)NCC(=O)N[C@@H](CCCCN)C(=O)N[C@@H](CCC(=O)O)C(=O)N[C@@H](Cc1ccccc1)C(=O)N[C@@H](CCCCN)C(=O)N[C@@H](CCCNC(=N)N)C(=O)N[C@H](C(=O)N[C@H](C(=O)N[C@@H](CCC(N)=O)C(=O)N[C@@H](CCCNC(=N)N)C(=O)N[C@H](C(=O)N[C@@H](CCCCN)C(=O)N[C@@H](CC(=O)O)C(=O)N[C@@H](Cc1ccccc1)C(=O)N[C@@H](CC(C)C)C(=O)N[C@@H](CCCNC(=N)N)C(=O)N[C@@H](CC(N)=O)C(=O)N[C@@H](CC(C)C)C(=O)N[C@H](C(=O)N1CCC[C@H]1C(=O)N[C@@H](CCCNC(=N)N)C(=O)N[C@H](C(=O)N[C@@H](CCC(=O)O)C(=O)N[C@@H](CO)C(=O)O)[C@@H](C)O)C(C)C)[C@@H](C)CC)C(C)C)[C@@H](C)CC [LL-37]
- MIC [1]: 2 µM
- GM-CSF (Monocytes): 3,08 pg/ml
- IFNa2 (Monocytes): 34,74 pg/ml
- IFNg (Monocytes): 38,2 pg/ml
- IL-1RA (Monocytes): 168,96 pg/ml
- IL-1a (Monocytes): < 1.13 pg/mL
- IL-1b (Monocytes): < 2.88 pg/mL
- IL-2 (Monocytes): < 2.73 pg/mL
- IL-3 (Monocytes): 3,38 pg/ml
- IL-5 (Monocytes): < 2.74 pg/mL
- IL-6 (Monocytes): < 2.42 pg/mL
- IL-7 (Monocytes): 8,54 pg/ml
- IL-8 (Monocytes): 755,68 pg/ml
- IL-9 (Monocytes): < 3.08 pg/mL
- IL-10 (Monocytes): 4,1 pg/ml
- IL-12p40 (Monocytes): 17,59 pg/ml
- IL-12p70 (Monocytes): 5,7 pg/ml
- IL-15 (Monocytes): 4,8 pg/ml
- IP-10 (Monocytes): 897,33 pg/ml
- RANTES (Monocytes): 312,51 pg/ml
- TGF-a (Monocytes): < 2.64 pg/mL
- TNFa (Monocytes): 6,47 pg/ml
- TNFb (Monocytes): < 2.85 pg/mL
- sCD40L (Monocytes): 20,8 pg/ml
- GM-CSF (PBMC): 0,66 pg/ml
- IFNa2 (PBMC): 3,72 pg/ml
- IFNg (PBMC): < 1.31 pg/mL
- IL-1RA (PBMC): 62,83 pg/ml
- IL-1a (PBMC): < 1.13 pg/mL
- IL-1b (PBMC): < 2.88 pg/mL
- IL-2 (PBMC): < 2.73 pg/mL
- IL-3 (PBMC): < 3.02 pg/mL
- IL-4 (PBMC): 38,61 pg/ml
- IL-5 (PBMC): < 2.74 pg/mL
- IL-6 (PBMC): < 2.42 pg/mL
- IL-7 (PBMC): < 2.06 pg/mL
- IL-8 (PBMC): 1591 pg/mL
- IL-9 (PBMC): < 3.08 pg/mL
- IL-10 (PBMC): < 1.47 pg/mL
- IL-12p40 (PBMC): < 3.69 pg/mL
- IL-12p70 (PBMC): 0,29 pg/ml
- IL-15 (PBMC): < 2.08 pg/mL
- IL-17A (PBMC): < 0.94 pg/mL
- IP-10 (PBMC): 2236 pg/mL
- RANTES (PBMC): 262,49 pg/ml
- TGF-a (PBMC): < 2.64 pg/mL
- TNFa (PBMC): 15,91 pg/ml
- TNFb (PBMC): < 2.85 pg/mL
- sCD40L (PBMC): 2,84 pg/ml
- Eotaxin (PBMC; supernatant): 3,21 pg/ml
- MIC (E. coli 1057 WT): 2 µM
